Results: US6709840B1, “Anergy associated genes” (The Board of Trustees of the Leland Stanford Junior …, priority 2000, dated 2004)

B1: IL-2: murine rIL-2 (Genzyme), 5 Units/ml during restimulation (protein, UniProt P04351 21-169, looked up)
Interleukin-2: APTSSSTSSSTAEAQQQQQQQQQQQQHLEQLLMDLQELLSRMENYRNLKLPRMLTFKFYLPKQATELKDLQCLEDELGPLRHVLDLTQSKSFQLEDAENFISNIRVTVVKLKGSDNTFECQFDDESATVVDFLRRWIAFCQSIISTSPQ

How the values were obtained:
Type in all cases: cell-based, murine
[1] = test system: 9.3.1-2 (MRC-OX44) mRNA in 11.3.7 T cells; assay: Real-time quantitative PCR of ddPCR clone 9.3.1-2
Description: (§1) “Real-time” Quantitative PCR. Total RNA was isolated as described above and 0.5 μg was reversed transcribed using the TaqMan reverse transcription reagent kit (PE Applied Biosystems) according to recommended protocols. Subsequently, 1 μl aliquots of cDNA (equivalent to 5 ng of input RNA) were amplified in separate reactions with primer pairs and fluorescent probe sets specific for GAPDH (to generate a standard curve to control for input cDNA amounts) and for target mRNAs identified in the differential display screen. Resting, activated and anergic RNA samples were also amplified using specific primers and a probe for IL-2. Standard cycling conditions and PCR protocols were used for the ABI PRISM 7700 Sequence Detection System (PE Applied Biosystems). […]
(§2) Using the relative standard curve method described in protocols provided by ABI, changes in target RNA expression for the different ddPCR cDNA clones and IL-2 were calculated as fold increases over resting cells. To control for input RNA amounts, the relative amount of GAPDH RNA was determined for each sample (resting, anergic, and activated) from a standard curve generated for GAPDH. […] Standard curves for both target genes and GAPDH were determined by quantitative PCR reactions using serial dilutions of known amounts of cDNA or plasmids containing relevant inserts.

[2] = test system: IL-2 mRNA in 11.3.7 T cells; assay: Real-time quantitative PCR of IL-2 message; settings: 4 hours ionomycin vs PMA and ionomycin (100%)
Description: as §1, §2

[3] = test system: A9.5.7-4 (cbl-b) mRNA in 11.3.7 T cells; assay: Real-time quantitative PCR of ddPCR clone A9.5.7-4
Description: as §1, §2

[4] = test system: 19.9.6-3 (Nurr2) mRNA in 11.3.7 T cells; assay: Real-time quantitative PCR of ddPCR clone 19.9.6-3
Description: as §1, §2

[5] = test system: 1-4 (GRAIL) mRNA in 11.3.7 T cells; assay: Real-time quantitative PCR of ddPCR clone 1-4
Description: as §1, §2

[6] = test system: 6.5.2-4 (lymphotactin) mRNA in 11.3.7 T cells; assay: Real-time quantitative PCR of ddPCR clone 6.5.2-4
Description: as §1, §2

11.3.7 T cells = assay: Anergy assay: proliferation on restimulation (3H-Thymidine)
Description: Anergy Assays. Resting 11.3.7 T cells were purified on a Lympholyte M (Cedarlane Labs) gradient and washed three times with 1×PBS. Costimulatory incompetent APCs, (B7 negative RT 7.7 fibroblasts), were irradiated at 3000 rads prior to use in antigen-induced anergy cultures. 6×10^6 T cells were mixed with 6×10^6 B7 negative RT7.7 APCs in 20 mls of culture media. […] For ionomycin-induced anergy, 2×10^6 11.3.7 T cells were incubated with 1.5 μM ionomycin (Calbiochem). For full activation, 1 μg/ml PMA was added to the cultures.
At selected time intervals, aliquots of both cultures were harvested, pelleted, and washed twice before adding 10 μl of anti-CD4 microbeads (Millenyl Biotech) to separate CD4+ T cells from the RT 7.7 fibroblast APCs, according to the manufacturer's protocol. As determined by flow cytometry, greater than 95% purity was routinely achieved. To test for the anergic phenotype, 50×10^4 T cells/well were then cultured with irradiated DBA/2 splenocytes and various concentrations of peptide in a 96 well plate. In selected cultures, murine rIL-2 (Genzyme) was added at 5 Units/ml during the restimulation period, to test the viability of the anergized T cells. After 48 hours of culture, the cells were pulsed for 18 hours with 3H-Thymidine, then harvested and counted.

[7] = fold over resting T cells (1.0), GAPDH normalized
[8] = ionomycin-induced anergy (ion vs PMA/ion)

| Molecule | 9.3.1-2 mRNA expression, Anergic + ion [1, 7] | 9.3.1-2 anergic:activated ratio [1, 8] | IL-2 mRNA level relative to activated cells [2] | A9.5.7-4 mRNA expression, Anergic + ion [3, 7] | A9.5.7-4 anergic:activated ratio [3, 8] | 19.9.6-3 mRNA expression, Anergic + ion [4, 7] | 19.9.6-3 anergic:activated ratio [4, 8] | 1-4 mRNA expression, Anergic + ion [5, 7] | 1-4 anergic:activated ratio [5, 8] | 6.5.2-4 mRNA expression, Anergic + ion [6, 7] | 6.5.2-4 anergic:activated ratio [6, 8] | ionomycin-induced anergy (11.3.7 T cells; 1.5 μM ionomycin, 6 hours incubation) | induction of functional unresponsiveness (11.3.7 T cells; 1.5 μM ionomycin, one hour incubation) | proliferative response of anergized T cells with IL-2 added (11.3.7 T cells; antigen-induced anergy, rIL-2 5 Units/ml during restimulation) | unresponsiveness with IL-2 added to restimulation cultures (11.3.7 T cells; ionomycin-induced anergy, rIL-2 5 Units/ml during restimulation) |
| --- | --- | --- | --- | --- | --- | --- | --- | --- | --- | --- | --- | --- | --- | --- | --- |
| C[C@H](CCC(=O)O)C[C@H](C)C[C@H](C)C(=O)/C=C(\O)[C@H](C)C[C@H](C)C/C=C/[C@@H](C)[C@@H](O)[C@@H](C)[C@@H](O)C[C@@H]1CC[C@@](C)([C@H]2CC[C@@](C)([C@@H](C)O)O2)O1 [Ionomycin, ionomycin] | 10.2 fold | 0.71 fold | ≤ 0.5% | 11.0 fold | 1.4 fold | 21.7 fold | 1.1 fold | 4.0 fold | 3.3 fold | 153 fold | 0.84 fold | complete | did not induce a state of functional unresponsiveness |  |  |
| B1 |  |  |  |  |  |  |  |  |  |  |  |  |  | induced as strong a proliferative response in the anergized T cells as it did in the resting, control T cells | overcome |
